Assay results as given in paper PMC4965013, “Open Source Drug Discovery with the Malaria Box Compound Collection for Neglected Diseases and Beyond” (PLoS Pathogens, 2016).

Columns and labels:
[1] = test system: P. falciparum 3D7 trophozoites; test: Metabolomic fingerprint profiling LC-MS; type: cell-based, Plasmodium falciparum; design: UDP-D-glucose / ADP-D-glucose: unit not given here; settings: for Acetyllysine / N-acetyl-L-ornithine / N-carbamoyl-L-aspartate / NADPH / dAMP / dCMP / dTDP / dTMP / dTTP / dihydroorotate / orotate / DLH / DLS/SDL/SID / PD / PEE / PVNF / 3-phosphoglycerate / ADP-D-glucose / ATP / CDP / D-sedoheptulose-1/7-phosphate / FAD / GMP / NAD+ / NADP+ / Octoluse Bisphosphate / Pyroglutamic acid / UDP-D-glucose / UDP-D-glucuronate / UDP-N-acetyl-glucosamine / UDP / UMP / UTP / a-ketoglutarate / citrate/isocitrate / cytidine / dATP / dGMP/AMP / fumarate / glucose-1/6-phosphate / glycerate / guanine / guanosine / hypoxanthine / indole / inosine / nicotinate / ornithine / phosphoenolpyruvate / pyruvate / ribose-phosphate / sarcosine/alanine / sn-glycerol-3-phosphate / succinate/methylmalonic acid / uridine / xanthosine: S2 Table Metabolomics; for Acetyllysine: metabolite Acetyllysine; for N-acetyl-L-ornithine: metabolite N-acetyl-L-ornithine; for N-carbamoyl-L-aspartate: metabolite N-carbamoyl-L-aspartate; for NADPH: metabolite NADPH; for dAMP: metabolite dAMP; for dCMP: metabolite dCMP; for dTDP: metabolite dTDP; for dTMP: metabolite dTMP; for dTTP: metabolite dTTP; for dihydroorotate: metabolite dihydroorotate; for orotate: metabolite orotate; for DLH: peptide DLH; for DLS/SDL/SID: peptide DLS/SDL/SID; for PD: peptide PD; for PEE: peptide PEE; for PVNF: peptide PVNF; for 3-phosphoglycerate: metabolite 3-phosphoglycerate; for ADP-D-glucose: metabolite ADP-D-glucose; for ATP: metabolite ATP; for CDP: metabolite CDP; for CDP / D-sedoheptulose-1/7-phosphate / GMP / Octoluse Bisphosphate / UDP / UMP / UTP / citrate/isocitrate / dGMP/AMP / fumarate / glucose-1/6-phosphate / glycerate / guanine / guanosine / inosine / pyruvate / sarcosine/alanine / succinate/methylmalonic acid / uridine / xanthosine: change in metabolite level after compound treatment; for D-sedoheptulose-1/7-phosphate: metabolite D-sedoheptulose-1/7-phosphate; for FAD: metabolite FAD; for GMP: metabolite GMP; for NAD+: metabolite NAD+; for NADP+: metabolite NADP+; for Octoluse Bisphosphate: metabolite Octoluse Bisphosphate; for Pyroglutamic acid: metabolite Pyroglutamic acid; for UDP-D-glucose: metabolite UDP-D-glucose; for UDP-D-glucuronate: metabolite UDP-D-glucuronate; for UDP-N-acetyl-glucosamine: metabolite UDP-N-acetyl-glucosamine; for UDP: metabolite UDP; for UMP: metabolite UMP; for UTP: metabolite UTP; for a-ketoglutarate: metabolite a-ketoglutarate; for citrate/isocitrate: metabolite citrate/isocitrate; for cytidine: metabolite cytidine; for dATP: metabolite dATP; for dGMP/AMP: metabolite dGMP/AMP; for fumarate: metabolite fumarate; for glucose-1/6-phosphate: metabolite glucose-1/6-phosphate; for glycerate: metabolite glycerate; for guanine: metabolite guanine; for guanosine: metabolite guanosine; for hypoxanthine: metabolite hypoxanthine; for indole: metabolite indole; for inosine: metabolite inosine; for 2_3-Diphosphoglyceric acid / 4-phosphopantothenate / 6-phospho-D-gluconate / FMN / IMP / Pyrophosphate / Sedoheptoluse bisphosphate / cyclic-AMP / glutathione disulfide / lactate / myo-inositol: metabolite level change after treatment; for nicotinate: metabolite nicotinate; for ornithine: metabolite ornithine; for phosphoenolpyruvate: metabolite phosphoenolpyruvate; for pyruvate: metabolite pyruvate; for ribose-phosphate: metabolite ribose-phosphate; for sarcosine/alanine: metabolite sarcosine/alanine; for sn-glycerol-3-phosphate: metabolite sn-glycerol-3-phosphate; for succinate/methylmalonic acid: metabolite succinate/methylmalonic acid; for uridine: metabolite uridine; for xanthosine: metabolite xanthosine
P. falciparum = test: EC50 listed in S2 Table Metabolomics (used to set the concentration tested); type: cell-based; settings: Plasmodium falciparum; EC50 used for Factor_XEC50 in metabolomics; read-out: EC50_nM

Question: Which results are given for `Cc1ccc(N2C(=O)C3C(C2=O)C2(c4ccccc4)C(=O)C3(c3ccccc3)C(c3ccccc3)=C2c2ccccc2)cc1` (stereo not drawn) [MMV666062]?
Answer: Acetyllysine [1]: -0.1709; N-acetyl-L-ornithine [1]: -0.324; N-carbamoyl-L-aspartate [1]: -0.2951; NADPH [1]: -0.2149; dAMP [1]: -0.4875; dCMP [1]: -0.7263; dTDP [1]: -0.1985; dTMP [1]: -0.6991; dTTP [1]: -0.2344; dihydroorotate [1]: -0.213; orotate [1]: -0.7199; DLH [1]: -0.006238; DLS/SDL/SID [1]: -0.3315; PD [1]: -0.3487; PEE [1]: -0.01834; PVNF [1]: -0.09341; 3-phosphoglycerate [1]: -1.0087; ADP-D-glucose [1]: -0.2764; ATP [1]: -0.1502; CDP [1]: -0.3978; D-sedoheptulose-1/7-phosphate [1]: -0.4359; FAD [1]: -0.2118; GMP [1]: -0.3584; NAD+ [1]: -0.2488; NADP+ [1]: -0.1786; Octoluse Bisphosphate [1]: -0.3963; Pyroglutamic acid [1]: -0.08618; UDP-D-glucose [1]: -0.2942; UDP-D-glucuronate [1]: -0.1481; UDP-N-acetyl-glucosamine [1]: -0.3667; UDP [1]: -0.4806; UMP [1]: -0.3962; UTP [1]: -0.1426; a-ketoglutarate [1]: -0.4814; citrate/isocitrate [1]: -0.07191; cytidine [1]: -0.4412; dATP [1]: -0.199; dGMP/AMP [1]: -0.7601; fumarate [1]: -0.1898; glucose-1/6-phosphate [1]: 0.1468; glycerate [1]: -0.3247; guanine [1]: -0.8033; guanosine [1]: -0.4206; hypoxanthine [1]: -0.5014; indole [1]: -0.4173; inosine [1]: -0.516; 2_3-Diphosphoglyceric acid [1]: -0.1968; 4-phosphopantothenate [1]: -0.3798; 6-phospho-D-gluconate [1]: -0.105; FMN [1]: -0.4755; IMP [1]: -0.5384; Pyrophosphate [1]: -0.0001746; Sedoheptoluse bisphosphate [1]: -0.4955; cyclic-AMP [1]: -0.438; glutathione disulfide [1]: -0.4046; lactate [1]: -0.3401; myo-inositol [1]: 0.6705; nicotinate [1]: -0.6806; ornithine [1]: -0.4373; phosphoenolpyruvate [1]: -0.3807; pyruvate [1]: -0.5819; ribose-phosphate [1]: -0.7488; sarcosine/alanine [1]: -0.5636; sn-glycerol-3-phosphate [1]: -0.1452; succinate/methylmalonic acid [1]: -0.2494; uridine [1]: -0.8945; xanthosine [1]: -0.2816; EC50 (P. falciparum): 0.282 µM

Question: How did the Acetyllysine [1] turn out when `CCCc1cc(O)c2c3c(c(=O)oc2c1)CN(C)CC3` [MMV665841] was run?
Answer: -2.612

Question: What about the N-acetyl-L-ornithine [1] of the same compound?
Answer: -1.949

Question: What about the N-carbamoyl-L-aspartate [1] of the same compound?
Answer: -0.955

Question: And the NADPH [1]?
Answer: 0.07097

Question: What about the dAMP [1] of the same compound?
Answer: -0.5338

Question: What about the dCMP [1] of the same compound?
Answer: 0.378

Question: And the dTDP [1]?
Answer: -0.09857

Question: What about the dTMP [1] of the same compound?
Answer: -0.08494

Question: And the dTTP [1]?
Answer: 0.3392

Question: What about the dihydroorotate [1] of the same compound?
Answer: -0.7381

Question: What about the orotate [1] of the same compound?
Answer: -0.6991

Question: What about the DLH [1] of the same compound?
Answer: -2.223

Question: And the DLS/SDL/SID [1]?
Answer: -2.0523

Question: And the PD [1]?
Answer: -2.506

Question: And the PEE [1]?
Answer: -2.465

Question: What about the PVNF [1] of the same compound?
Answer: -2.267

Question: What about the 3-phosphoglycerate [1] of the same compound?
Answer: 0.2411

Question: What about the ADP-D-glucose [1] of the same compound?
Answer: 0.03562

Question: What about the ATP [1] of the same compound?
Answer: 0.3706

Question: And the CDP [1]?
Answer: -0.1497

Question: What about the D-sedoheptulose-1/7-phosphate [1] of the same compound?
Answer: -0.0969

Question: And the FAD [1]?
Answer: 0.4757

Question: And the GMP [1]?
Answer: 0.7431

Question: And the “NAD+” value [1]?
Answer: 0.1538

Question: And the “NADP+” value [1]?
Answer: 0.3743

Question: And the “Octoluse Bisphosphate” value [1]?
Answer: -0.2246

Question: What about the Pyroglutamic acid [1] of the same compound?
Answer: 0.8685

Question: And the UDP-D-glucose [1]?
Answer: 0.1781

Question: And the UDP-D-glucuronate [1]?
Answer: 0.2234

Question: What about the UDP-N-acetyl-glucosamine [1] of the same compound?
Answer: 0.1163

Question: And the UDP [1]?
Answer: -0.165

Question: What about the UMP [1] of the same compound?
Answer: 0.01879

Question: What about the UTP [1] of the same compound?
Answer: 0.1488

Question: And the a-ketoglutarate [1]?
Answer: -1.017

Question: What about the citrate/isocitrate [1] of the same compound?
Answer: -0.03416

Question: What about the cytidine [1] of the same compound?
Answer: 0.6575

Question: And the dATP [1]?
Answer: -0.1225

Question: What about the dGMP/AMP [1] of the same compound?
Answer: -0.03336

Question: And the fumarate [1]?
Answer: -0.991

Question: And the glucose-1/6-phosphate [1]?
Answer: 0.02998

Question: And the glycerate [1]?
Answer: -0.7467

Question: What about the guanine [1] of the same compound?
Answer: -0.195

Question: What about the guanosine [1] of the same compound?
Answer: -0.4835

Question: What about the hypoxanthine [1] of the same compound?
Answer: 0.1991

Question: And the indole [1]?
Answer: -0.2191

Question: And the inosine [1]?
Answer: 0.006205

Question: What about the 2_3-Diphosphoglyceric acid [1] of the same compound?
Answer: 0.1243

Question: What about the 4-phosphopantothenate [1] of the same compound?
Answer: -0.4271

Question: And the 6-phospho-D-gluconate [1]?
Answer: -0.03292

Question: And the FMN [1]?
Answer: 0.1348

Question: And the IMP [1]?
Answer: -0.4143

Question: What about the Pyrophosphate [1] of the same compound?
Answer: 0.01603

Question: What about the Sedoheptoluse bisphosphate [1] of the same compound?
Answer: -0.2052

Question: What about the cyclic-AMP [1] of the same compound?
Answer: -0.23

Question: And the glutathione disulfide [1]?
Answer: -0.3848

Question: And the lactate [1]?
Answer: -0.3481

Question: What about the myo-inositol [1] of the same compound?
Answer: -0.7715

Question: What about the nicotinate [1] of the same compound?
Answer: -0.06082

Question: And the ornithine [1]?
Answer: -0.04541

Question: And the phosphoenolpyruvate [1]?
Answer: 0.2681

Question: What about the pyruvate [1] of the same compound?
Answer: -0.1725

Question: And the ribose-phosphate [1]?
Answer: -0.5158

Question: What about the sarcosine/alanine [1] of the same compound?
Answer: -1.291

Question: What about the sn-glycerol-3-phosphate [1] of the same compound?
Answer: -0.1021

Question: And the succinate/methylmalonic acid [1]?
Answer: -0.1585

Question: And the uridine [1]?
Answer: -0.2002

Question: What about the xanthosine [1] of the same compound?
Answer: -0.28

Question: What about the EC50 (P. falciparum) of the same compound?
Answer: 0.146 µM

Question: Which results are given for `Cc1cc(C=C2SC(=Nc3ccccc3)N(C3CCCC3)C2=O)c(C)n1-c1ccc(Cl)cc1` [MMV666688]?
Answer: Acetyllysine [1]: -0.1624; N-acetyl-L-ornithine [1]: -0.0421; N-carbamoyl-L-aspartate [1]: 1.4864; NADPH [1]: 0.2408; dAMP [1]: 0.03218; dCMP [1]: -0.069; dTDP [1]: -0.4979; dTMP [1]: -0.4157; dTTP [1]: -0.4815; dihydroorotate [1]: 2.242; orotate [1]: -0.3391; DLH [1]: -0.1014; DLS/SDL/SID [1]: -0.07676; PD [1]: 0.01194; PEE [1]: -0.1091; PVNF [1]: -0.1399; 3-phosphoglycerate [1]: -0.02892; ADP-D-glucose [1]: -0.07639; ATP [1]: -0.1967; CDP [1]: -0.456; D-sedoheptulose-1/7-phosphate [1]: -0.2168; FAD [1]: -0.003318; GMP [1]: 0.2544; NAD+ [1]: -0.2173; NADP+ [1]: -0.08704; Octoluse Bisphosphate [1]: -0.1579; Pyroglutamic acid [1]: 0.04307; UDP-D-glucose [1]: -0.04445; UDP-D-glucuronate [1]: -0.08539; UDP-N-acetyl-glucosamine [1]: -0.1189; UDP [1]: -0.6253; UMP [1]: -0.03143; UTP [1]: -0.1882; a-ketoglutarate [1]: 0.009693; citrate/isocitrate [1]: -0.05943; cytidine [1]: 0.03268; dATP [1]: 0.7542; dGMP/AMP [1]: -0.3421; fumarate [1]: -0.03259; glucose-1/6-phosphate [1]: 0.01665; glycerate [1]: 0.07227; guanine [1]: 0.07709; guanosine [1]: 0.1849; hypoxanthine [1]: 0.08201; indole [1]: 0.1358; inosine [1]: 0.04909; 2_3-Diphosphoglyceric acid [1]: -0.2563; 4-phosphopantothenate [1]: -0.1327; 6-phospho-D-gluconate [1]: -0.08404; FMN [1]: -0.1061; IMP [1]: -0.002655; Pyrophosphate [1]: 0.3465; Sedoheptoluse bisphosphate [1]: -0.1911; cyclic-AMP [1]: -0.1214; glutathione disulfide [1]: -0.05112; lactate [1]: 0.01618; myo-inositol [1]: 0.01299; nicotinate [1]: -0.0155; ornithine [1]: -0.1088; phosphoenolpyruvate [1]: -0.02123; pyruvate [1]: 0.008296; ribose-phosphate [1]: -0.004186; sarcosine/alanine [1]: -0.1822; sn-glycerol-3-phosphate [1]: 0.09746; succinate/methylmalonic acid [1]: -0.05454; uridine [1]: -0.08058; xanthosine [1]: 0.111; EC50 (P. falciparum): 0.263 µM
